Results from US20260021078A1, “COMPOSITIONS AND METHODS FOR THE TREATMENT OR PREVENTION OF PULMONARY HYPERTENSION” (VIVUS LLC, priority 2015, published 2026).
Where two headings read alike, the source gives them in different places.

What was measured:
[1] = system: BMP response element (BRE) from the Id1 promoter fused to luciferase (BRE-luc) in C2C12 mouse myoblastoma reporter cell line; assay: BRE-luc BMP signaling reporter assay in C2C12 cells; format: cell-based
Procedure: The activation of the BMP pathway was measured by luminescence. […] Thus, ascomycin activates BMPR2 signaling, and can be used for the prevention or treatment of diseases associated with decreased BMPR2 signaling, such as pulmonary arterial hypertension (PAH).

[2] = system: SuHx rat model of pulmonary arterial hypertension; assay: Sugen 5416 plus chronic hypoxia (SuHx) rat model of PAH, Example 1; format: in vivo
From the text: The purpose of this study was to establish pulmonary arterial hypertension (PAH) in rats by induction with Sugen 5416, a vascular endothelial growth factor (VEGF) inhibitor, plus chronic hypoxia (SuHx) in order to evaluate and compare the efficacy of tacrolimus and ascomycin for the treatment of PAH in the SuHx rat model. The assay is designed to measure the pulmonary and systemic arterial blood pressures related to PAH in the anaesthetized SuHx rat induced with a single subcutaneous dose of Sugen 5416, combined with an induction period of chronic hypoxia.
Male Sprague Dawley rats (Charles River Laboratories) weighing between 200 and 250 g at the time of their enrollment in the study were the test subjects for this study. The animals were assigned to groups by the Study Director in order to evenly distribute the ranges of body weights throughout all treatment groups. Animals in the test groups (n=10 in each group) received one subcutaneous injection of 20 mg/kg of SU5416 on Day 0 and were returned to their respective cages. These rats were placed in cages in which the controlled airflow (ventilated cage system) was adjusted to deliver a FiO2 equivalent to 0.10 (10%) using a mixture of nitrogen and ambient air, for a period of 3 weeks. Animals in the control group (n=5) remained in cages exposed to ambient oxygen levels.
On day 21, animals in the test groups were implanted with osmotic pumps filled with the vehicle alone (negative control), or with the appropriate concentration of tacrolimus (FK506) or ascomycin (FK520) to deliver 0.05 mg/kg/day of tacrolimus, 0.05 mg/kg/day of ascomycin, or 0.15 mg/kg/day of ascomycin for a period of three weeks. At the end of the study, the rats were anaesthetized and hemodynamic data was obtained. […] Cardiac output was lower after administration of Sugen5416 and hyposia, and increased with ascomycin treatment.

[3] = system: SuHx rat model of pulmonary arterial hypertension; assay: SuHx rat model of PAH with 3 weeks normoxia before treatment, Example 2; format: in vivo
Procedure: A second study was conducted as described in Example 1, except the rats injected with Sugen 5416 and placed in hypoxia for 3 weeks were returned to normoxia for three weeks, and then treated for three weeks. The rats were then implanted with s.c. osmotic pumps delivering vehicle (negative control), 0.05 mg/kg/day tacrolimus (FK506), or 0.15 mg/kg/day, 1.0 mg/kg/day, 3.0 mg/kg/day ascomycin (FK520). Rats that were not treated with Sugen 5416 and remained under normoxia served as control. There were 5 rats in the control group, and 10 rats in each treated group. At the end of the study, the rats were anaesthetized and hemodynamic data was obtained. […] The left lobes of the lungs were harvested from every rat, fixed with 10% formalin, sliced at 5 μm thickness, mounted and stained with Movat staining. […] Of particular significance in SuHx model is the rare plexiform lesions (label 4 in FIG. 3A) that are neointimal hyperplasia blocking the small vessels resulting in increased pressure. With plexiform lesions and endothelial cells overgrowth, obliteration is formed.

[4] = system: patients with pulmonary hypertension (WHO Group I PAH); assay: Clinical study in patients with pulmonary arterial hypertension, Example 3; format: in vivo, human
From the text: Patients are invited to participate in this study because they have pulmonary hypertension (PH) and are currently treated with one or multiple drugs for PH such as PDE-5 inhibitors (sildenafil, tadalafil), prostacyclins (Flolan, Remodulin, Iloprost) and/or the endothelin antagonist Ambrisentan. This study is open to male or female subjects, 18-70 years of age, with pulmonary hypertension. The Inclusion and Exclusion criteria used are below:
• 1. Age ≥18 and <70 years • 2. Diagnosis of WHO Group I Pulmonary Arterial Hypertension (PAH) (Idiopathic (I)PAH, Heritable PAH (including Hereditary Hemorrhagic Telangiectasia), Associated (A)PAH (including collagen vascular disorders, drugs+toxins exposure, congenital heart disease, and portopulmonary disease). • 3. Previous Right Heart Catheterization (RHC) that documented: • a. Mean PAP≥25 mmHg. • b. Pulmonary capillary wedge pressure<15 mmHg. • c. Pulmonary Vascular Resistance≥3.0 Wood units or 240 dynes/sec/cm5 • 5. All NYHA/WHO functional classes. • 6. Willingness of female subjects to use birth control, or be post-menopausal, or status post hysterectomy.
• 1. WHO Group II-V Pulmonary Hypertension. • 2. Current or prior experimental PAH treatments within the last 6 months (including but not limited to tyrosine kinase inhibitors, rho-kinase inhibitors, or cGMP modulators). • 3. […]

[5] = assay/target not stated; cited from earlier work
[6] = system: popliteal lymph node hyperplasia; settings: popliteal lymph node hyperplasia assay; lower potency than tacrolimus; cited from earlier work
[7] = system: rats; settings: 14-day, cited from earlier work
[8] = 0.15 mg/kg/day by osmotic pump for three weeks, vs vehicle-treated SuHx rats
[9] = all three doses (0.15 [0.3 in b20], 1.0, 3.0 mg/kg/day) s.c. osmotic pump, three weeks
[10] = 0.05 mg/kg/day s.c. osmotic pump, three weeks

| Compound | IDI activation (luminescence relative to the EC-20 dose of BMP4) ([1]; with exogenous BMP4) [%] | IDI activation (luminescence relative to the EC-20 dose of BMP4) ([1]; without exogenous BMP4) [%] | RVSP (FIG. 1B) [2, 8] | pulmonary arterial pressure (FIG. 1A) [2, 8] | Cardiac output ([2]; ascomycin treatment after Sugen5416 and hypoxia, dose not specified) | lung histopathology (Movat staining micrographs, FIG. 3B) ([3]; 1 mg/kg/day, left lung lobes, negative control showed all four grades of disease progression) | right ventricular systolic pressure [3, 9] | systolic pulmonary arterial pressure [3, 9] | incidences of hypertension or cardiovascular events [4] | tolerability ([4]; all tested doses) | IC50 [5] [nM] | immunosuppressive potency compared with tacrolimus (fold lower) [6] [fold] | nephrotoxicity ([7]; continuous i.p. infusion at 10 mg/kg/day, rats on a normal diet) | nephrotoxicity ([7]; continuous i.v. infusion up to 6 mg/kg/day, rats on a low salt diet) | nephrotoxicity ([7]; daily oral administration up to 50 mg/kg/day, rats on a normal diet) | right ventricular hypertrophy [3, 10] | right ventricular systolic pressure [3, 10] |
| --- | --- | --- | --- | --- | --- | --- | --- | --- | --- | --- | --- | --- | --- | --- | --- | --- | --- |
| CC[C@@H]1/C=C(\C)C[C@H](C)C[C@H](OC)[C@H]2O[C@@](O)(C(=O)C(=O)N3CCCC[C@H]3C(=O)O[C@H](/C(C)=C/[C@@H]3CC[C@@H](O)[C@H](OC)C3)[C@H](C)[C@@H](O)CC1=O)[C@H](C)C[C@@H]2OC [ascomycin, (3S,4R,5S,8R,9E,12S,14S,15R,16S,18R, 19R,26aS)-8-ethyl-5,19-dihydroxy-3-{(1E)-1-[(1R,3R,4R)-4-hydroxy-3-methoxycyclohexyl]prop-1-en-2-yl}-14,16-dimethoxy-4,10,12,18-tetramethyl-5.6,8,11,12,13,14,15,16,17,18,19,24,25,26,26a-hexadecahydro-3H-15.19-epoxypyrido[2,1-c][1,4]oxazacyclotricosine-1,7,20,21(4H,23H)-tetrone] | 238 | 104 | reversed the elevation | reversed the elevation | increased | mostly medial hypertrophy (label 1) and non-muscular vessels | decreases | decreases | no incidences | well tolerated | 0.55 | 3 | not induced | not induced | not induced | – | – |
| C=CC[C@@H]1/C=C(\C)C[C@H](C)C[C@H](OC)[C@H]2O[C@@](O)(C(=O)C(=O)N3CCCC[C@H]3C(=O)O[C@H](/C(C)=C/[C@@H]3CC[C@@H](O)[C@H](OC)C3)[C@H](C)[C@@H](O)CC1=O)[C@H](C)C[C@@H]2OC [tacrolimus, reference compound] | – | – | – | – | – | – | – | – | – | – | – | – | – | – | – | reduces the elevation | reduces the elevation |
